From US8846656B2, “Tetrahydropyrido-pyridine and tetrahydropyrido-pyrimidine compounds and use thereof as C5a receptor modulators” (Novartis AG, priority 2011, dated 2014) come the findings set out here.

One assay deals with human C5aR (Homo sapiens (Human), UniProt P21730). The assay can be described thus: FLIPR assay: inhibition of C5a-mediated calcium mobilization. The following applies: stable cell line over expressing human C5aR & Gα15, human C5a at EC50 (0.1-0.25 nM). It counts as cell-based. Put shortly: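 Compounds were added for 30 minutes at room temperature (1% DMSO) ahead of C5a stimulation. Before this, cells were dye-loaded for 1 h at 37° C: calcium 5 with 2.5 mM probenecid in HBSS, 20 mM HEPES, 0.1% BSA. Cells co-express human C5aR and Gα15; read-out is FLIPR Tetra calcium flux.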
(In general: Calcium assays in cells follow changes in intracellular calcium, usually with a dye or a luminescent sensor.)

The next assay deals with CD11b. The assay can be described thus: Human whole blood CD11b up-regulation assay. Format: cell-based. Particulars: Homo sapiens, 2 nM human C5a, CD15+ granulocytes, read-out: hCD11b IC50. A digest of the protocol: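 Flow cytometric read-out: CD11b median fluorescence intensity of CD15+ granulocytes, 10,000 events. Stimulus was 2 nM human C5a for 15 min at room temperature, following 10 min compound exposure in 1% DMSO in fresh sodium-heparin whole blood; staining done on ice and erythrocytes lysed.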

What is called IC50 is the concentration at which inhibition is half-maximal.

Chain of human C5aR (P21730 whole entry): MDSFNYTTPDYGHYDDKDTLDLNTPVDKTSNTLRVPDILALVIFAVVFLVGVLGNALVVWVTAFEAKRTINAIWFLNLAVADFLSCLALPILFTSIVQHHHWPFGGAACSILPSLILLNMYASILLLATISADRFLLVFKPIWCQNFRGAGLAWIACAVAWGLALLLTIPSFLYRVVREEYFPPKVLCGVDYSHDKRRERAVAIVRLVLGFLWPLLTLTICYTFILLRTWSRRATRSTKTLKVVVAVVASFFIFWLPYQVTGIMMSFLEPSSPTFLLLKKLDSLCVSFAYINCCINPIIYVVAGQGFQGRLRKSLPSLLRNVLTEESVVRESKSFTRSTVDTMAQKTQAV

For `Cc1ccccc1N1CCc2nc(-c3c(C)cccc3C)nc(N(C)CC(C)(C)O)c2C1` [Example 17-H, 1-((2-(2,6-Dimethylphenyl)-6-(o-tolyl)-5,6,7,8-tetrahydropyrido[4,3-d]pyrimidin-4-yl)(methyl)amino)-2-methylpropan-2-ol], the IC50 on human C5aR came out at 10 nM; with CD11b, 300 nM.

For `Cc1ccc(C(C)C)cc1N1CCc2nc(-c3c(C)ccc4[nH]nc(C)c34)nc(N3CC[C@@H](N(C)C)C3)c2C1` [Example 65-B, (R)-1-(2-(3,5-dimethyl-1H-indazol-4-yl)-6-(5-isopropyl-2-methylphenyl)-5,6,7,8-tetrahydropyrido[4,3-d]pyrimidin-4-yl)-N,N-dimethylpyrrolidin-3-amine], the IC50 on human C5aR is 2 nM; in the assay with CD11b, 16 nM.

As for `CO[C@@H]1CCN(c2nc(-c3c(C)ccc4[nH]nc(C)c34)nc3c2CN(c2cc(C(F)(F)F)ccc2C)CC3)[C@H](C)C1` [Example 21-AH, 2-(3,5-dimethyl-1H-indazol-4-yl)-4-((2R,4R)-4-methoxy-2-methylpiperidin-1-yl)-6-(2-methyl-5-(trifluoromethyl)phenyl)-5,6,7,8-tetrahydropyrido[4,3-d]pyrimidine], the IC50 at human C5aR was 1 nM; in the assay on CD11b, 6 nM.

For `COc1ccc(C)c(N2CCc3nc(-c4c(C)cccc4C)nc(N4CC[C@@H](OC)C[C@H]4C)c3C2)c1` [Example 21-N, 2-(2,6-dimethylphenyl)-6-(5-methoxy-2-methylphenyl)-4-((2R,4R)-4-methoxy-2-methylpiperidin-1-yl)-5,6,7,8-tetrahydropyrido[4,3-d]pyrimidine], the figures for the half-inhibitory concentration (IC50) at human C5aR and in the assay with CD11b were 2 nM and 8 nM, respectively.

Consider `Cc1ccc(C(C)C)cc1N1CCc2nc(-c3cccc4[nH]cc(C)c34)nc(N3CC[C@H](O)[C@H](C)C3)c2C1` (racemic) [Example 17-AN, racemic-1-(6-(5-isopropyl-2-methylphenyl)-2-(3-methyl-1H-indol-4-yl)-5,6,7,8-tetrahydropyrido[4,3-d]pyrimidin-4-yl)-3-methylpiperidin-4-ol], for which the values for the IC50 at human C5aR and in the assay on CD11b were 31 nM and 423 nM, respectively.

Take `CO[C@H]1CCN(c2nc(-c3c(C)cccc3C)nc3c2CN(c2cc(C(F)(F)F)ccc2C)CC3)CC1(C)C` [Example 19-AB, (S)-2-(2,6-dimethylphenyl)-4-(4-methoxy-3,3-dimethylpiperidin-1-yl)-6-(2-methyl-5-(trifluoromethyl)phenyl)-5,6,7,8-tetrahydropyrido[4,3-d]pyrimidine]: the IC50 came to 17 nM at human C5aR and 26 nM in the assay with CD11b.

Turning to `Cc1ccc(C(C)C)cc1N1CCc2nc(-c3cccc4[nH]cc(C)c34)nc(N3CCN(CC(N)=O)[C@H](C)C3)c2C1` [Example 24-J, (R)-2-(4-(6-(5-isopropyl-2-methylphenyl)-2-(3-methyl-1H-indol-4-yl)-5,6,7,8-tetrahydropyrido[4,3-d]pyrimidin-4-yl)-2-methylpiperazin-1-yl)acetamide], the IC50 came out at 8 nM at human C5aR and 423 nM in the assay on CD11b.

Regarding `Cc1cc(-c2c(C(C)C)ccc3[nH]ncc23)nc2c1CN(c1cc(C3CC3)nn1C)CC2` [Example 46-A, 6-(3-Cyclopropyl-1-methyl-1H-pyrazol-5-yl)-2-(5-isopropyl-1H-indazol-4-yl)-4-methyl-5,6,7,8-tetrahydro-1,6-naphthyridine], the 50% inhibitory concentration (IC50) at human C5aR is 20 nM; in the assay on CD11b, 1990 nM.

In the case of `Cc1ccc2[nH]nc(C)c2c1-c1nc2c(c(N3C[C@@H](O)[C@@H]3C)n1)CN(c1c(Cl)c(C3CC3)nn1C)CC2` (racemic) [Example 69-H, (trans)-1-(6-(4-chloro-3-cyclopropyl-1-methyl-1H-pyrazol-5-yl)-2-(3,5-dimethyl-1H-indazol-4-yl)-5,6,7,8-tetrahydropyrido[4,3-d]pyrimidin-4-yl)-2-methylazetidin-3-ol], the figures for the concentration for half-maximal inhibition (IC50) on human C5aR and with CD11b were 4 nM and 196 nM, respectively.

In the case of `CO[C@@H]1CCN(c2nc(-c3c(C)ccc4[nH]nc(C)c34)nc3c2CN(c2c(Cl)c(C(F)(F)F)nn2C)CC3)CC1(C)C` [Example 55-N, (R)-6-(4-chloro-1-methyl-3-(trifluoromethyl)-1H-pyrazol-5-yl)-2-(3,5-dimethyl-1H-indazol-4-yl)-4-(4-methoxy-3,3-dimethylpiperidin-1-yl)-5,6,7,8-tetrahydropyrido[4,3-d]pyrimidine], the IC50 on human C5aR came out at 6 nM; in the assay with CD11b it was 12 nM.

For the compound `Cc1c[nH]c2cccc(-c3nc4c(c(N5CCN(CC(N)=O)[C@H](C)C5)n3)CN(c3ccccc3C(F)(F)F)CC4)c12` [Example 24-D, (R)-2-(2-methyl-4-(2-(3-methyl-1H-indol-4-yl)-6-(2-(trifluoromethyl)phenyl)-5,6,7,8 tetrahydropyrido[4,3-d]pyrimidin-4-yl)piperazin-1-yl)acetamide], the concentration for half-maximal inhibition (IC50) on human C5aR was 91 nM; in the assay on CD11b, 1500 nM.

Regarding `CO[C@@H]1CCN(c2nc(-c3cccc4[nH]cc(C)c34)nc3c2CN(c2cc(Cl)ccc2C)CC3)CC1(C)C` [Example 17-BK, (R)-6-(5-chloro-2-methylphenyl)-4-(4-methoxy-3,3-dimethylpiperidin-1-yl)-2-(3-methyl-1H-indol-4-yl)-5,6,7,8-tetrahydropyrido[4,3-d]pyrimidine], the figures for the IC50 on human C5aR and in the assay with CD11b were 163 nM and 40 nM, respectively.

As for `CNCCOc1nc(-c2c(C)ccc3[nH]nc(C)c23)nc2c1CN(c1cc(C(C)C)ccc1C)CC2` [Example 63-G, 2-((2-(3,5-dimethyl-1H-indazol-4-yl)-6-(5-isopropyl-2-methylphenyl)-5,6,7,8-tetrahydropyrido[4,3-d]pyrimidin-4-yl)oxy)-N-methylethanamine], the IC50 on human C5aR was 31 nM; in the assay on CD11b it was 197 nM.

On to `CO[C@H]1CCN(c2nc(-c3c(C)cccc3C)nc3c2CN(c2cc(C(C)C)ccc2C)CC3)CC1(C)C` [Example 19-AD, (S)-2-(2,6-dimethylphenyl)-6-(5-isopropyl-2-methylphenyl)-4-(4-methoxy-3,3-dimethylpiperidin-1-yl)-5,6,7,8-tetrahydropyrido[4,3-d]pyrimidine], for which the IC50 was 2 nM on human C5aR and 26 nM in the assay on CD11b.

Take `CO[C@@H]1CCN(c2nc(-c3c(C)cc(C)cc3C)nc3c2CN(c2cc(C(C)C)ccc2C)CC3)CC1(C)C` [Example 21-AE, (R)-6-(5-isopropyl-2-methylphenyl)-2-mesityl-4-(4-methoxy-3,3-dimethylpiperidin-1-yl)-5,6,7,8-tetrahydropyrido[4,3-d]pyrimidine]: the values for the 50% inhibitory concentration (IC50) on human C5aR and in the assay with CD11b were 9 nM and 93 nM, respectively.

Regarding `CO[C@@H]1CCN(c2nc(-c3c(C)ccc4[nH]nc(C)c34)nc3c2CN(c2cc(C4CC4)nn2C)CC3)[C@H](C)C1` [Example 23-H, 6-(3-cyclopropyl-1-methyl-1H-pyrazol-5-yl)-2-(3,5-dimethyl-1H-indazol-4-yl)-4-((2R,4R)-4-methoxy-2-methylpiperidin-1-yl)-5,6,7,8-tetrahydropyrido[4,3-d]pyrimidine], the values for the half-inhibitory concentration (IC50) at human C5aR and with CD11b were 1 nM and 24 nM, respectively.

As for `COc1nc(-c2c(C)ccc3[nH]nc(C)c23)nc2c1CN(c1cc(C(C)C)ccc1C)CC2` [Example 31-I, 2-(3,5-dimethyl-1H-indazol-4-yl)-6-(5-isopropyl-2-methylphenyl)-4-methoxy-5,6,7,8-tetrahydropyrido[4,3-d]pyrimidine], the results for the 50% inhibitory concentration (IC50) on human C5aR and in the assay on CD11b were 9 nM and 18 nM, respectively.
